The results in this text go back to PubChem BioAssay (NCI).

Some test systems named below: IGROV1 ovarian; 786-0 renal; K-562 leukemia; HCT-15 colon; UO-31 renal; BT-549 breast; A549 NSCLC; ACHN renal; M14 melanoma; CAKI-1 renal; MCF7 breast; UACC-62 melanoma; NCI-H23 lung; CCRF-CEM leukemia; RXF 393 renal; OVCAR-4 ovarian; UACC-257 melanoma; NCI-H226 lung.
Holding throughout (test): DTP human tumour cell line panel, 48 h

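Grown in 96-well plates, cells were treated for 48 hours with each compound at five concentrations. Insufficient inhibition: endpoint recorded as highest concentration tested. TGI: concentration producing complete growth inhibition.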

As to `OC(CCN1CCCCC1)(c1ccccc1)c1ccccc1`, the TGI in the assay on IGROV1 ovarian, with 786-0 renal, in the assay with K-562 leukemia, in the assay with HCT-15 colon, in the assay with UO-31 renal and in the assay on BT-549 breast was > 100 µM in each case. Further, the TGI with A549 NSCLC, in the assay on ACHN renal, in the assay with M14 melanoma, in the assay with CAKI-1 renal, with MCF7 breast and with UACC-62 melanoma was > 100 µM in each case. In addition, the TGI with NCI-H23 lung, in the assay with CCRF-CEM leukemia and in the assay with RXF 393 renal was > 100 µM throughout.
As to `CC1=NN(C(=O)CC(=O)Nc2ccc(C)cc2)C(=O)C1N=Nc1ccc(C(=O)O)cc1` (centres undefined), the concentration for total growth inhibition (TGI) in the assay on IGROV1 ovarian, with 786-0 renal, with K-562 leukemia, in the assay on HCT-15 colon, in the assay on UO-31 renal and with BT-549 breast was > 100 µM in each case. The TGI in the assay on A549 NSCLC, in the assay with ACHN renal, in the assay with M14 melanoma, in the assay with CAKI-1 renal, with MCF7 breast and with UACC-62 melanoma was > 100 µM in each case. The TGI in the assay on NCI-H23 lung, in the assay on OVCAR-4 ovarian, in the assay on CCRF-CEM leukemia, in the assay on UACC-257 melanoma and in the assay with RXF 393 renal was > 100 µM in each case.
Turning to `Cc1csc2nc3c(cnn3C)c(=S)n12`, the TGI in the assay with IGROV1 ovarian, with 786-0 renal, in the assay on K-562 leukemia, in the assay on HCT-15 colon, in the assay with UO-31 renal and with BT-549 breast was > 100 µM in each case. Besides, the TGI in the assay on A549 NSCLC, with ACHN renal, with M14 melanoma, in the assay with CAKI-1 renal, in the assay on MCF7 breast and with UACC-62 melanoma was > 100 µM throughout. Moreover, the TGI in the assay with NCI-H23 lung, in the assay with OVCAR-4 ovarian, with CCRF-CEM leukemia, with UACC-257 melanoma and with RXF 393 renal was > 100 µM in each case.
As for `Cc1ccc2c(c1)C(=O)/C(=N/Nc1ccc(Cl)cc1)CCO2`, the TGI with IGROV1 ovarian, with 786-0 renal, with K-562 leukemia, with HCT-15 colon, in the assay with UO-31 renal and in the assay with BT-549 breast was > 100 µM throughout. For the same compound, the TGI with A549 NSCLC, in the assay on ACHN renal, in the assay on M14 melanoma, in the assay on CAKI-1 renal, with MCF7 breast and in the assay with UACC-62 melanoma was > 100 µM in each case. The TGI with NCI-H23 lung, with OVCAR-4 ovarian, in the assay on CCRF-CEM leukemia, in the assay with UACC-257 melanoma and in the assay with NCI-H226 lung was > 100 µM in each case.
Regarding `CCC(C)C(C(=O)N/N=C1/SCC(=O)N1c1ccccc1)C(=O)N/N=C1/SCC(=O)N1c1ccccc1` (centres undefined), the concentration for total growth inhibition (TGI) in the assay with IGROV1 ovarian, in the assay on 786-0 renal, in the assay on K-562 leukemia, in the assay on HCT-15 colon, in the assay with UO-31 renal and in the assay with BT-549 breast was > 100 µM in each case. The total growth inhibition concentration (TGI) was > 100 µM in the assay with A549 NSCLC; > 100 µM in the assay on ACHN renal; > 100 µM in the assay with M14 melanoma; > 100 µM with CAKI-1 renal; > 100 µM with MCF7 breast; 36.9 µM with UACC-62 melanoma. Moreover, the TGI with NCI-H23 lung was > 100 µM; with OVCAR-4 ovarian, 33.3 µM; in the assay on CCRF-CEM leukemia it was > 100 µM; with UACC-257 melanoma it was > 100 µM; in the assay with RXF 393 renal, 42.9 µM.
On to `COc1ccc(OC)c2sc(N3C(=O)/C(=C/c4ccc(Cl)cc4)N=C3c3ccccc3)nc12`, for which the concentration for total growth inhibition (TGI) with IGROV1 ovarian was > 100 µM; in the assay on 786-0 renal it was > 100 µM; with K-562 leukemia it was 86.6 µM; in the assay on HCT-15 colon, > 100 µM; in the assay with UO-31 renal it was > 100 µM; with BT-549 breast, > 100 µM. Besides, the TGI is > 100 µM with A549 NSCLC; > 100 µM in the assay on ACHN renal; > 100 µM in the assay on M14 melanoma; > 100 µM in the assay on CAKI-1 renal; 79.2 µM in the assay on MCF7 breast; > 100 µM in the assay on UACC-62 melanoma. The TGI with NCI-H23 lung, in the assay with CCRF-CEM leukemia, in the assay on UACC-257 melanoma and in the assay on RXF 393 renal was > 100 µM throughout.
For `COC(=O)c1cc2c(o1)Sc1ccccc1NC2=O`, the TGI in the assay with IGROV1 ovarian, in the assay on 786-0 renal, in the assay on K-562 leukemia, with HCT-15 colon, in the assay with BT-549 breast and with A549 NSCLC was > 100 µM each time. Further, the concentration for total growth inhibition (TGI) in the assay with ACHN renal, with M14 melanoma, with CAKI-1 renal, in the assay on MCF7 breast, in the assay on UACC-62 melanoma and in the assay with NCI-H23 lung was > 100 µM each time. Moreover, the TGI with OVCAR-4 ovarian, in the assay on CCRF-CEM leukemia, in the assay on UACC-257 melanoma and with NCI-H226 lung was > 100 µM each time.
With `CCOC(=O)NNC(=O)C1CSC(c2ccccc2)N1C(C)=O` (centres undefined), the TGI in the assay with IGROV1 ovarian, with 786-0 renal, in the assay on K-562 leukemia, in the assay on HCT-15 colon, with UO-31 renal and with BT-549 breast was > 100 µM each time. Besides, the TGI in the assay with A549 NSCLC, in the assay on ACHN renal, in the assay on M14 melanoma, in the assay with CAKI-1 renal, in the assay on MCF7 breast and with UACC-62 melanoma was > 100 µM throughout. For the same compound, the total growth inhibition concentration (TGI) in the assay on NCI-H23 lung, in the assay on OVCAR-4 ovarian, in the assay on CCRF-CEM leukemia, with UACC-257 melanoma and with NCI-H226 lung was > 100 µM in each case.
With `Cc1oc2c(c1C)S(=O)(=O)C(C#N)C(c1ccccc1)N2` (centres undefined), the TGI with IGROV1 ovarian, with 786-0 renal, with HCT-15 colon, with UO-31 renal, in the assay on BT-549 breast and in the assay on A549 NSCLC was > 100 µM each time. Moreover, the TGI with ACHN renal, in the assay on M14 melanoma, with CAKI-1 renal, in the assay on MCF7 breast, with UACC-62 melanoma and with NCI-H23 lung was > 100 µM throughout. For the same compound, the TGI with OVCAR-4 ovarian was > 100 µM; in the assay on CCRF-CEM leukemia it was 48.2 µM; in the assay with UACC-257 melanoma, > 100 µM; in the assay on NCI-H226 lung, > 100 µM.
Regarding `Cc1ccc2nc(CN3CCCC(O)C3)cc(=O)n2c1` (centres undefined), the TGI with IGROV1 ovarian, in the assay on 786-0 renal, with K-562 leukemia, in the assay with HCT-15 colon, in the assay with UO-31 renal and with BT-549 breast was > 100 µM throughout. For the same compound, the TGI in the assay with A549 NSCLC, with ACHN renal, with M14 melanoma, with CAKI-1 renal, with MCF7 breast and with UACC-62 melanoma was > 100 µM each time. For the same compound, the TGI in the assay with NCI-H23 lung, in the assay with OVCAR-4 ovarian, with CCRF-CEM leukemia, in the assay on UACC-257 melanoma and in the assay on NCI-H226 lung was > 100 µM in each case.
Regarding `O=C(Nc1cccc2ccccc12)Nn1cnnc1`, the TGI in the assay on IGROV1 ovarian, with K-562 leukemia, in the assay with HCT-15 colon, in the assay with UO-31 renal, with BT-549 breast and in the assay on A549 NSCLC was > 100 µM in each case. Moreover, the TGI with ACHN renal, in the assay on M14 melanoma, in the assay on CAKI-1 renal, in the assay with MCF7 breast, in the assay with UACC-62 melanoma and in the assay on NCI-H23 lung was > 100 µM each time. For the same compound, the TGI with OVCAR-4 ovarian, in the assay on CCRF-CEM leukemia, in the assay on UACC-257 melanoma and in the assay on NCI-H226 lung was > 100 µM in each case.
On to `COc1ccc2c(c1)/C(=C\c1c(C)nc3n1CCS3)C(=O)N2`, for which the TGI was > 100 µM in the assay with IGROV1 ovarian; > 100 µM in the assay on 786-0 renal; > 100 µM in the assay on K-562 leukemia; > 100 µM with HCT-15 colon; > 100 µM in the assay with UO-31 renal; 86.3 µM with BT-549 breast. For the same compound, the TGI with A549 NSCLC is > 100 µM; in the assay on ACHN renal it was > 100 µM; in the assay with M14 melanoma, 93.7 µM; in the assay with CAKI-1 renal it was > 100 µM; in the assay on MCF7 breast it was > 100 µM; in the assay on UACC-62 melanoma it was > 100 µM. The TGI in the assay with NCI-H23 lung, in the assay with CCRF-CEM leukemia, with UACC-257 melanoma and in the assay on RXF 393 renal was > 100 µM each time.
Consider `COc1cc(C2SCC(=O)N2c2ccccc2Cl)cc(OC)c1OC` (centres undefined), for which the TGI in the assay with IGROV1 ovarian, with 786-0 renal, in the assay on K-562 leukemia, with HCT-15 colon, with UO-31 renal and in the assay on BT-549 breast was > 100 µM throughout. Moreover, the TGI in the assay on A549 NSCLC, in the assay on ACHN renal, with M14 melanoma, with CAKI-1 renal, in the assay on MCF7 breast and with UACC-62 melanoma was > 100 µM in each case. Also, the TGI in the assay with NCI-H23 lung, in the assay on OVCAR-4 ovarian, in the assay with CCRF-CEM leukemia, in the assay on UACC-257 melanoma and with NCI-H226 lung was > 100 µM in each case.

The term TGI denotes the concentration giving total growth inhibition. Read a low TGI as more potent growth arrest.
